Measurements reported in the supplement of paper PMC8741786.
≈ marks a conversion by molar mass, not a printed value.

Experiments:
Assay in all cases: minimum inhibitory concentration (ETEST)
[1] = tested on: Neisseria meningitidis
Protocol: (§1)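 Oropharyngeal Neisseria isolates from MSM and employees in Belgium were identified to species by MALDI-TOF MS. MICs of azithromycin, ceftriaxone and ciprofloxacin were determined by ETEST on GC agar after 24 h at 36.5 °C and 5-7% CO2, in mg/L. Values beyond the strip range are reported as >256 (azithromycin) or <0.016 (ceftriaxone); isolates that did not grow are NA.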

[2] = tested on: Neisseria elongata; details: population: general population, antibiotic use in previous 6 months: No
Protocol: as §1

[3] = tested on: Neisseria cinerea; details: population: general population, antibiotic use in previous 6 months: No
Protocol: as §1

[4] = tested on: Neisseria bacilliformis; details: isolate id (sample isolate): Co000780_5; population: general population; antibiotic use in previous 6 months: No
Protocol: as §1

[5] = tested on: Neisseria oralis; details: population: general population, antibiotic use in previous 6 months: No
Protocol: as §1

[6] = tested on: Neisseria mucosa/macacae
Protocol: as §1

[7] = tested on: Neisseria lactamica; details: population: general population, antibiotic use in previous 6 months: No
Protocol: as §1

CC[C@H]1OC(=O)[C@H](C)[C@@H](O[C@H]2C[C@@](C)(OC)[C@@H](O)[C@H](C)O2)[C@H](C)[C@@H](O[C@@H]2O[C@H](C)C[C@H](N(C)C)[C@H]2O)[C@](C)(O)C[C@@H](C)CN(C)[C@H](C)[C@@H](O)[C@]1(C)O [azithromycin]
Details	minimum inhibitory concentration [µg/mL]
[1], isolate id (sample isolate): 19040471_1, population: MSM, antibiotic use in previous 6 months: No	0.38 (≈ 0.507 µM)
[1], isolate id (sample isolate): 19040855_1, population: MSM, antibiotic use in previous 6 months: No	0.25 (≈ 0.334 µM)
[1], isolate id (sample isolate): 19040874_2, population: MSM, antibiotic use in previous 6 months: No	2 (≈ 2.67 µM)
[1], isolate id (sample isolate): 19040900_2, population: MSM, antibiotic use in previous 6 months: No	0.75 (≈ 1 µM)
[1], isolate id (sample isolate): 19042150_2, population: MSM, antibiotic use in previous 6 months: Yes	1.5 (≈ 2 µM)
[1], isolate id (sample isolate): 19042756_3, population: MSM, antibiotic use in previous 6 months: Yes	0.38 (≈ 0.507 µM)
[1], isolate id (sample isolate): 19043201_1, population: MSM, antibiotic use in previous 6 months: No	0.75 (≈ 1 µM)
[1], isolate id (sample isolate): 19043201_2, population: MSM, antibiotic use in previous 6 months: No	0.38 (≈ 0.507 µM)
[1], isolate id (sample isolate): 19043274_1, population: MSM, antibiotic use in previous 6 months: Yes	0.5 (≈ 0.668 µM)
[1], isolate id (sample isolate): 19043274_2, population: MSM, antibiotic use in previous 6 months: Yes	0.38 (≈ 0.507 µM)
[1], isolate id (sample isolate): 19051853_1, population: MSM, antibiotic use in previous 6 months: No	0.38 (≈ 0.507 µM)
[1], isolate id (sample isolate): 19052394_3, population: MSM, antibiotic use in previous 6 months: Yes	0.5 (≈ 0.668 µM)
[1], isolate id (sample isolate): 19052434_1, population: MSM, antibiotic use in previous 6 months: Yes	0.75 (≈ 1 µM)
[1], isolate id (sample isolate): 19060069_1, population: MSM, antibiotic use in previous 6 months: Yes	1 (≈ 1.34 µM)
[1], isolate id (sample isolate): 19060069_2, population: MSM, antibiotic use in previous 6 months: Yes	1 (≈ 1.34 µM)
[1], isolate id (sample isolate): 19060089_2, population: MSM, antibiotic use in previous 6 months: Yes	4 (≈ 5.34 µM)
[1], isolate id (sample isolate): 19061666_1, population: MSM, antibiotic use in previous 6 months: Yes	3 (≈ 4.01 µM)
[1], isolate id (sample isolate): 19062990_1, population: MSM, antibiotic use in previous 6 months: Yes	0.5 (≈ 0.668 µM)
[1], isolate id (sample isolate): 19070019_2, population: MSM, antibiotic use in previous 6 months: No	0.38 (≈ 0.507 µM)
[1], isolate id (sample isolate): 19070019_4, population: MSM, antibiotic use in previous 6 months: No	0.38 (≈ 0.507 µM)
[1], isolate id (sample isolate): 19070047_1, population: MSM, antibiotic use in previous 6 months: No	0.5 (≈ 0.668 µM)
[1], isolate id (sample isolate): 19082621_2, population: MSM, antibiotic use in previous 6 months: No	0.5 (≈ 0.668 µM)
[1], isolate id (sample isolate): 19091461_1, population: MSM, antibiotic use in previous 6 months: No	6 (≈ 8.01 µM)
[1], isolate id (sample isolate): 19091461_2, population: MSM, antibiotic use in previous 6 months: No	4 (≈ 5.34 µM)
[1], isolate id (sample isolate): 19091973_1, population: MSM, antibiotic use in previous 6 months: No	0.5 (≈ 0.668 µM)
[1], isolate id (sample isolate): 19092429_3, population: MSM, antibiotic use in previous 6 months: No	0.38 (≈ 0.507 µM)
[1], isolate id (sample isolate): 19103457_1, population: MSM, antibiotic use in previous 6 months: No	0.38 (≈ 0.507 µM)
[1], isolate id (sample isolate): 19103457_4, population: MSM, antibiotic use in previous 6 months: No	0.25 (≈ 0.334 µM)
[1], isolate id (sample isolate): 19110394_1, population: MSM, antibiotic use in previous 6 months: No	0.5 (≈ 0.668 µM)
[1], isolate id (sample isolate): 19113049_3, population: MSM, antibiotic use in previous 6 months: No	0.19 (≈ 0.254 µM)
[1], isolate id (sample isolate): 19113049_6, population: MSM, antibiotic use in previous 6 months: No	0.25 (≈ 0.334 µM)
[1], isolate id (sample isolate): Co000765_1, population: general population, antibiotic use in previous 6 months: No	0.5 (≈ 0.668 µM)
[1], isolate id (sample isolate): Co000790_1, population: general population, antibiotic use in previous 6 months: No	2 (≈ 2.67 µM)
[1], isolate id (sample isolate): Co000790_3, population: general population, antibiotic use in previous 6 months: No	1 (≈ 1.34 µM)
[6], isolate id (sample isolate): 19041762_2, population: MSM, antibiotic use in previous 6 months: Yes	3 (≈ 4.01 µM)
[6], isolate id (sample isolate): 19051904_1, population: MSM, antibiotic use in previous 6 months: Yes	2 (≈ 2.67 µM)
[6], isolate id (sample isolate): 19052394_2, population: MSM, antibiotic use in previous 6 months: Yes	4 (≈ 5.34 µM)
[6], isolate id (sample isolate): 19062968_1, population: MSM, antibiotic use in previous 6 months: Yes	16 (≈ 21.4 µM)
[6], isolate id (sample isolate): 19081774_2, population: MSM, antibiotic use in previous 6 months: No	24 (≈ 32 µM)
[6], isolate id (sample isolate): 19111422_4, population: MSM, antibiotic use in previous 6 months: No	1.5 (≈ 2 µM)
[6], isolate id (sample isolate): 19111422_7, population: MSM, antibiotic use in previous 6 months: No	1 (≈ 1.34 µM)
[6], isolate id (sample isolate): Co000770_5, population: general population, antibiotic use in previous 6 months: No	3 (≈ 4.01 µM)
[6], isolate id (sample isolate): Co000771_4, population: general population, antibiotic use in previous 6 months: No	6 (≈ 8.01 µM)
[6], isolate id (sample isolate): Co000772_3, population: general population, antibiotic use in previous 6 months: No	4 (≈ 5.34 µM)
[6], isolate id (sample isolate): Co000773_3, population: general population, antibiotic use in previous 6 months: No	2 (≈ 2.67 µM)
[6], isolate id (sample isolate): Co000779_1, population: general population, antibiotic use in previous 6 months: No	2 (≈ 2.67 µM)
[6], isolate id (sample isolate): Co000783_3, population: general population, antibiotic use in previous 6 months: No	6 (≈ 8.01 µM)
[6], isolate id (sample isolate): Co000783_6, population: general population, antibiotic use in previous 6 months: No	32 (≈ 42.7 µM)
[6], isolate id (sample isolate): Co000787_3, population: general population, antibiotic use in previous 6 months: No	4 (≈ 5.34 µM)
[6], isolate id (sample isolate): Co000788_1, population: general population, antibiotic use in previous 6 months: No	2 (≈ 2.67 µM)
[6], isolate id (sample isolate): Co000788_4, population: general population, antibiotic use in previous 6 months: No	4 (≈ 5.34 µM)

Details	minimum inhibitory concentration [µg/mL]
[2], isolate id (sample isolate): Co000767_3	0.5 (≈ 0.668 µM)
[2], isolate id (sample isolate): Co000780_1	0.75 (≈ 1 µM)
[2], isolate id (sample isolate): Co000783_4	0.38 (≈ 0.507 µM)
[3], isolate id (sample isolate): Co000769_3	1 (≈ 1.34 µM)
[3], isolate id (sample isolate): Co000776_4	24 (≈ 32 µM)
[3], isolate id (sample isolate): Co000776_5	32 (≈ 42.7 µM)
[3], isolate id (sample isolate): Co000782_1	2 (≈ 2.67 µM)
[5], isolate id (sample isolate): Co000761_7	2 (≈ 2.67 µM)
[5], isolate id (sample isolate): Co000763_1	1 (≈ 1.34 µM)
[5], isolate id (sample isolate): Co000766_2	1.5 (≈ 2 µM)
[5], isolate id (sample isolate): Co000770_1	2 (≈ 2.67 µM)
[5], isolate id (sample isolate): Co000774_1	3 (≈ 4.01 µM)
[5], isolate id (sample isolate): Co000776_1	4 (≈ 5.34 µM)
[5], isolate id (sample isolate): Co000776_1.1	3 (≈ 4.01 µM)
[5], isolate id (sample isolate): Co000779_2	4 (≈ 5.34 µM)
[5], isolate id (sample isolate): Co000790_5	2 (≈ 2.67 µM)
[7], isolate id (sample isolate): Co000761_1	2 (≈ 2.67 µM)
[7], isolate id (sample isolate): Co000771_1	1 (≈ 1.34 µM)

Details	minimum inhibitory concentration [µg/mL]
[4]	2 (≈ 2.67 µM)
